From paper PMC3711446 (2013)

T1: MBNL1N, Cy3-labeled (UniProt Q9NR56 1-253)
T1 sequence: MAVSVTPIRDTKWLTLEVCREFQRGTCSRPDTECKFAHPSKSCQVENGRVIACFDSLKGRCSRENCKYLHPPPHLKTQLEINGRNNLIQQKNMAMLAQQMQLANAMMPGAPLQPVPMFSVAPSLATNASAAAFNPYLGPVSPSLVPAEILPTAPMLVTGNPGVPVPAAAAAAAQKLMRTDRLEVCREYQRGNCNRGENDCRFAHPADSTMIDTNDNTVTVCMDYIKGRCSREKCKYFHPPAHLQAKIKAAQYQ


Columns and labels:
[1] = test system: TAMRA-(CUG)6 (RNA, repeat) CUGCUGCUGCUGCUGCUG; assay: fluorescence titration; details: PBS 1x (137 mM NaCl, 2.7 mM KCl); PBS pH 7.4, 20 °C; 20 nM RNA
MBNL1N, Cy3-labeled = molecular target: T1, MBNL1N, Cy3-labeled; assay: single-molecule TIRFM

Row | KD [1] | Molecule | Kd (MBNL1N, Cy3-labeled)
1 | 66000 ± 2000 nM | CNC(=O)c1ccc2nc3ccccc3c(NCCCCNc3nc(N)nc(N)n3)c2c1 | –
2 | 318 ± 15 nM | Nc1nc(N)nc(NCCCCNc2c3ccccc3nc3c(C(=O)NCCCNCCCNCCCNC(=O)c4cccc5c(NCCCCNc6nc(N)nc(N)n6)c6ccccc6nc45)cccc23)n1 | –
3 | – | GCUGCUGUUCGCUGCUG (structured_RNA, 3' TEG-biotin) [(CUG)4 TIRF construct] | 3.1 ± 0.1 nM
